Data reported in EP4596574A1, “GLP-1/GCG/GIP TRIPLE-RECEPTOR AGONIST AND USE THEREOF” (Sunshine Lake Pharma Co., Ltd., priority 2022, dated 2024).
Starred links: 1 amine or outer side, 2 acyl side, 3 side chain; linkers in the order of their positions; H or OH if unused. Non-standard residues stand in square brackets, D forms with d. Residues, ends and D or L forms follow the SMILES beside them. Groups on a side chain read outwards from the residue. *: point of attachment. C18 diacid = O=C(O)CCCCCCCCCCCCCCCCC(=O)*; αMePhe(2-F) = C[C@](N)(Cc1ccccc1F)C(=O)O; γGlu = O=C(O)[C@H](CCC(=O)[*:2])N[*:1]; AEEA = NCCOCCOCC(=O)O; Aib = CC(C)(N)C(=O)O

Experiments:
Type in all cases: cell-based
[1] = target: T1, GIPR (Homo sapiens, UniProt P48546); assay: In vitro cell activity, cAMP production in HEK293 cells expressing GIPR; conditions: HEK293-GIPR cells, cAMP; read-out: GIPR (EC50)
T1 construct: expressed in transfected cells; host or cells: HEK293 (HEK293-GIPR)
T1 sequence (P48546 22-466): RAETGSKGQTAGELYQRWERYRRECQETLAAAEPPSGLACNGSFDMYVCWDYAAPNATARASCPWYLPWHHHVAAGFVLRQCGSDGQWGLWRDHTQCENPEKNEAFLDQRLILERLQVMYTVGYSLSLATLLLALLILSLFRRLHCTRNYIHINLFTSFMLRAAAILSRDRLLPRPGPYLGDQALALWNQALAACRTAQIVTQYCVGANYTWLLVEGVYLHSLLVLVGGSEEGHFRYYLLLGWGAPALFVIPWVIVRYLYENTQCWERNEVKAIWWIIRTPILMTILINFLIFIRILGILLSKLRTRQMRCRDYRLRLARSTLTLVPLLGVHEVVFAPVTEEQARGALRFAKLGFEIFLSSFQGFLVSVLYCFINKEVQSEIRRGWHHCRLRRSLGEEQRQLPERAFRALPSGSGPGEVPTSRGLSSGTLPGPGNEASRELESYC
Method: After they were completely thawed within 1.5 minutes, the cells were added dropwise into a 15 mL centrifuge tube containing 8 mL of warm culture medium in a clean bench. The tubes were centrifuged at 900 rpm for 5 minutes, the supernatant was discarded, and the cells were resuspended in 1 mL of complete culture medium (by pipetting 15 times). 20 µL of the suspension was immediately taken and mixed with an equal volume of trypan blue. 20 µL was taken to count the number of live cells, and the cells were diluted to 4×10^5 cells/mL with complete culture medium. • 4) The 384-well plate was divided into GLP-1R cell, GCGR cell and GIPR cell areas. The cell suspension was added to the wells of the corresponding area at 5 µL per well using a 12-channel variable-channel adjustable dispenser. […] Then, the diluted cAMP-d2 working solution and anti-cAMP-crytate working solution were mixed evenly in a ratio of 1:1, and 10 µL was added to each well of the sample group. […] In GraphPad Prism 6, the signal ratio and sample concentration were nonlinearly fitted using a four-parameter equation to obtain the EC50 value.

[2] = target: T2, GLP-1R (Homo sapiens, UniProt P43220); assay: In vitro cell activity, cAMP production in HEK293 cells expressing GLP-1R; conditions: HEK293-GLP-1R cells, cAMP; read-out: GLP-1R (EC50)
T2 construct: expressed in transfected cells; host or cells: HEK293 (HEK293-GLP-1R)
Method: (§1) After they were completely thawed within 1.5 minutes, the cells were added dropwise into a 15 mL centrifuge tube containing 8 mL of warm culture medium in a clean bench. The tubes were centrifuged at 900 rpm for 5 minutes, the supernatant was discarded, and the cells were resuspended in 1 mL of complete culture medium (by pipetting 15 times). 20 µL of the suspension was immediately taken and mixed with an equal volume of trypan blue. 20 µL was taken to count the number of live cells, and the cells were diluted to 4×10^5 cells/mL with complete culture medium. • 4) The 384-well plate was divided into GLP-1R cell, GCGR cell and GIPR cell areas. The cell suspension was added to the wells of the corresponding area at 5 µL per well using a 12-channel variable-channel adjustable dispenser. […] Then, the diluted cAMP-d2 working solution and anti-cAMP-crytate working solution were mixed evenly in a ratio of 1:1, and 10 µL was added to each well of the sample group. The wells were covered with white lids and placed at room temperature in the dark for 1 hour or at 4 °C overnight. • 6) The fluorescence values at 665 nm and 620 nm were detected in a multifunctional microplate reader. In GraphPad Prism 6, the signal ratio and sample concentration were nonlinearly fitted using a four-parameter equation to obtain the EC50 value.

[3] = target: T3, GCGR (Homo sapiens, UniProt P47871); assay: In vitro cell activity, cAMP production in HEK293 cells expressing GCGR; conditions: HEK293-GCGR cells, cAMP; read-out: GCGR (EC50)
T3 construct: expressed in transfected cells; host or cells: HEK293 (HEK293-GCGR)
Method: as §1

T3 sequence (P47871 26-477, species assumed): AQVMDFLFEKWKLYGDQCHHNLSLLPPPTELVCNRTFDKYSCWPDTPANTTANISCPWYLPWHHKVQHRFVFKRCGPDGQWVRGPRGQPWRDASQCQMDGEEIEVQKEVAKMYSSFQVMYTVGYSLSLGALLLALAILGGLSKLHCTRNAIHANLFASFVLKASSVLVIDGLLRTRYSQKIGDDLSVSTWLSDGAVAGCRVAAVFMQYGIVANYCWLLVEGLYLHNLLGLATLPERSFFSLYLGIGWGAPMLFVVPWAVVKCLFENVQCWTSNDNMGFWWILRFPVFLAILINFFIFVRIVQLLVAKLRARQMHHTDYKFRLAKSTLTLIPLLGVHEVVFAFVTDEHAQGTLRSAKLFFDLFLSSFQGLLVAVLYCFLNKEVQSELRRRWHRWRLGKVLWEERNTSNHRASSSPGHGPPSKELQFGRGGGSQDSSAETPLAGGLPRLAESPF
T2 sequence (P43220 24-463, species assumed): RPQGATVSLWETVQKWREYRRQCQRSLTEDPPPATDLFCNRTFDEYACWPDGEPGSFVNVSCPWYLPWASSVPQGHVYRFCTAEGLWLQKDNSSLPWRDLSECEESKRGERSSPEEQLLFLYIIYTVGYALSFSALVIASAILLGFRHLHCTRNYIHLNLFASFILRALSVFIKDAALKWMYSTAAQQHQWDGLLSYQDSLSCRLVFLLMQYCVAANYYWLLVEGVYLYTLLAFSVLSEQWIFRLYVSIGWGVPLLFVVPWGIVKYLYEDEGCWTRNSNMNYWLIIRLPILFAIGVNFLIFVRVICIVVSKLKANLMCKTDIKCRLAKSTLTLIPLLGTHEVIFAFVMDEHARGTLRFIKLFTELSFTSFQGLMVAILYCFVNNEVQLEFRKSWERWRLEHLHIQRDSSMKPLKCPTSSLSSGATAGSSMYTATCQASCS

Row | Compound | EC50 [1] [nM] | EC50 [2] [nM] | EC50 [3] [nM]
1 | CC[C@H](C)[C@H](NC(=O)[C@H](Cc1ccccc1)NC(=O)[C@H](CCC(=O)O)NC(=O)[C@H](CCC(N)=O)NC(=O)[C@H](CCC(N)=O)NC(=O)[C@H](C)NC(=O)[C@H](CCCCNC(=O)COCCOCCNC(=O)CC[C@H](NC(=O)CCCCCCCCCCCCCCCCCCC(=O)O)C(=O)O)NC(=O)[C@H](CCC(=O)O)NC(=O)[C@H](CC(=O)O)NC(=O)[C@H](CC(C)C)NC(=O)[C@H](CC(C)C)NC(=O)[C@@H](NC(=O)[C@H](CO)NC(=O)[C@H](Cc1ccc(O)cc1)NC(=O)[C@H](CC(=O)O)NC(=O)[C@H](CO)NC(=O)[C@@H](NC(=O)[C@](C)(Cc1ccccc1F)NC(=O)[C@@H](NC(=O)CNC(=O)[C@H](CCC(N)=O)NC(=O)C(C)(C)NC(=O)[C@@H](N)Cc1ccc(O)cc1)[C@@H](C)O)[C@@H](C)O)[C@@H](C)CC)C(=O)N[C@@H](CCC(=O)O)C(=O)N[C@@H](Cc1c[nH]c2ccccc12)C(=O)N[C@@H](CC(C)C)C(=O)N[C@@H](CC(C)C)C(=O)N[C@@H](C)C(=O)NCC(=O)NCC(=O)N1CCC[C@H]1C(=O)N[C@@H](CO)C(=O)N[C@@H](CO)C(=O)NCC(=O)N[C@@H](C)C(=O)N1CCC[C@H]1C(=O)N1CCC[C@H]1C(=O)N1CCC[C@H]1C(=O)N[C@@H](CO)C(=O)O [HEC-PT90] | 0.186 | 0.313 | 7.07
2 | CC[C@H](C)[C@H](NC(=O)[C@H](Cc1ccccc1)NC(=O)[C@H](C)NC(=O)[C@H](CCC(N)=O)NC(=O)[C@H](CCC(N)=O)NC(=O)[C@H](CCCNC(=N)N)NC(=O)[C@@H](NC(=O)[C@H](CCCCN)NC(=O)[C@H](CC(=O)O)NC(=O)[C@H](CCCCNC(=O)COCCOCCNC(=O)CC[C@H](NC(=O)CCCCCCCCCCCCCCCCC(=O)O)C(=O)O)NC(=O)[C@H](CC(C)C)NC(=O)[C@@H](NC(=O)[C@H](CO)NC(=O)[C@H](Cc1ccc(O)cc1)NC(=O)[C@H](CC(=O)O)NC(=O)[C@H](CO)NC(=O)[C@@H](NC(=O)[C@](C)(Cc1ccccc1F)NC(=O)[C@@H](NC(=O)CNC(=O)[C@H](CCC(N)=O)NC(=O)C(C)(C)NC(=O)[C@@H](N)Cc1ccc(O)cc1)[C@@H](C)O)[C@@H](C)O)[C@@H](C)CC)[C@@H](C)CC)C(=O)N[C@@H](CCC(=O)O)C(=O)N[C@@H](Cc1ccc(O)cc1)C(=O)N[C@@H](CC(C)C)C(=O)N[C@@H](CC(C)C)C(=O)N[C@@H](CCC(=O)O)C(=O)NCC(=O)NCC(=O)N1CCC[C@H]1C(=O)N[C@@H](CO)C(=O)N[C@@H](CO)C(=O)NCC(=O)N[C@@H](C)C(=O)N1CCC[C@H]1C(=O)N1CCC[C@H]1C(=O)N1CCC[C@H]1C(=O)N[C@@H](CO)C(N)=O [HEC-PT143] (H-Y[Aib]QGT[αMePhe(2-F)]TSDYSILK([AEEA-γGlu-C18 diacid])DKIRQQAFIEYLLEGGPSSGAPPPS-NH2) | 0.063 | 0.14 | 0.173
3 | CC[C@H](C)[C@H](NC(=O)[C@H](Cc1ccccc1)NC(=O)[C@H](C)NC(=O)[C@H](CCC(N)=O)NC(=O)[C@H](C)NC(=O)[C@H](CCCNC(=N)N)NC(=O)[C@H](CCCCNC(=O)COCCOCCNC(=O)CC[C@H](NC(=O)CCCCCCCCCCCCCCCCCCC(=O)O)C(=O)O)NC(=O)[C@H](CCC(=O)O)NC(=O)[C@H](CC(=O)O)NC(=O)[C@H](CC(C)C)NC(=O)[C@H](CC(C)C)NC(=O)[C@@H](NC(=O)[C@H](CO)NC(=O)[C@H](Cc1ccc(O)cc1)NC(=O)[C@H](CC(=O)O)NC(=O)[C@H](CO)NC(=O)[C@@H](NC(=O)[C@](C)(Cc1ccccc1F)NC(=O)[C@@H](NC(=O)CNC(=O)[C@H](CCC(N)=O)NC(=O)C(C)(C)NC(=O)[C@@H](N)Cc1ccc(O)cc1)[C@@H](C)O)[C@@H](C)O)[C@@H](C)CC)C(=O)N[C@@H](CCC(=O)O)C(=O)N[C@@H](Cc1ccc(O)cc1)C(=O)N[C@@H](CC(C)C)C(=O)N[C@@H](CC(C)C)C(=O)N[C@@H](CCC(=O)O)C(=O)NCC(=O)NCC(=O)N1CCC[C@H]1C(=O)N[C@@H](CO)C(=O)N[C@@H](CO)C(=O)NCC(=O)N[C@@H](C)C(=O)N1CCC[C@H]1C(=O)N1CCC[C@H]1C(=O)N1CCC[C@H]1C(=O)N[C@@H](CO)C(=O)O [HEC-PT94] | 1.3 | 0.541 | 0.0442
4 | CC[C@H](C)[C@H](NC(=O)[C@H](Cc1ccccc1)NC(=O)[C@H](C)NC(=O)[C@H](CCCNC(=N)N)NC(=O)[C@H](C)NC(=O)[C@H](CCCNC(=N)N)NC(=O)[C@H](CCCCNC(=O)COCCOCCNC(=O)CC[C@H](NC(=O)CCCCCCCCCCCCCCCCCCC(=O)O)C(=O)O)NC(=O)[C@H](CCC(=O)O)NC(=O)[C@H](CC(=O)O)NC(=O)[C@H](CC(C)C)NC(=O)[C@H](CC(C)C)NC(=O)[C@@H](NC(=O)[C@H](CO)NC(=O)[C@H](Cc1ccc(O)cc1)NC(=O)[C@H](CC(=O)O)NC(=O)[C@H](CO)NC(=O)[C@@H](NC(=O)[C@](C)(Cc1ccccc1F)NC(=O)[C@@H](NC(=O)CNC(=O)[C@H](CCC(N)=O)NC(=O)C(C)(C)NC(=O)[C@@H](N)Cc1ccc(O)cc1)[C@@H](C)O)[C@@H](C)O)[C@@H](C)CC)C(=O)N[C@@H](CCC(=O)O)C(=O)N[C@@H](Cc1ccc(O)cc1)C(=O)N[C@@H](CC(C)C)C(=O)N[C@@H](CC(C)C)C(=O)N[C@@H](C)C(=O)NCC(=O)NCC(=O)N1CCC[C@H]1C(=O)N[C@@H](CO)C(=O)N[C@@H](CO)C(=O)NCC(=O)N[C@@H](C)C(=O)N1CCC[C@H]1C(=O)N1CCC[C@H]1C(=O)N1CCC[C@H]1C(=O)N[C@@H](CO)C(=O)O [HEC-PT88] | 0.485 | 0.13 | 0.035
5 | CC[C@H](C)[C@H](NC(=O)[C@H](Cc1ccccc1)NC(=O)[C@H](C)NC(=O)[C@H](Cc1c[nH]cn1)NC(=O)[C@H](CCC(N)=O)NC(=O)[C@H](C)NC(=O)[C@H](CCCCNC(=O)COCCOCCNC(=O)CC[C@H](NC(=O)CCCCCCCCCCCCCCCCC(=O)O)C(=O)O)NC(=O)[C@H](CCCNC(=N)N)NC(=O)[C@H](CC(=O)O)NC(=O)[C@H](CC(C)C)NC(=O)[C@H](CC(C)C)NC(=O)[C@@H](NC(=O)[C@H](CO)NC(=O)[C@H](Cc1ccc(O)cc1)NC(=O)[C@H](CC(=O)O)NC(=O)[C@H](CO)NC(=O)[C@@H](NC(=O)[C@](C)(Cc1ccccc1F)NC(=O)[C@@H](NC(=O)CNC(=O)[C@H](CCC(N)=O)NC(=O)C(C)(C)NC(=O)[C@@H](N)Cc1c[nH]cn1)[C@@H](C)O)[C@@H](C)O)[C@@H](C)CC)C(=O)N[C@@H](CCC(=O)O)C(=O)N[C@@H](Cc1ccc(O)cc1)C(=O)N[C@@H](CC(C)C)C(=O)N[C@@H](CC(C)C)C(=O)N[C@@H](C)C(=O)NCC(=O)NCC(=O)N1CCC[C@H]1C(=O)N[C@@H](CO)C(=O)N[C@@H](CO)C(=O)NCC(=O)N[C@@H](C)C(=O)N1CCC[C@H]1C(=O)N1CCC[C@H]1C(=O)N1CCC[C@H]1C(=O)N[C@@H](CO)C(=O)O [HEC-PT155] | 0.0509 | 0.0555 | 0.0581
